Test results from PMC7251097, “Aspartate/asparagine-β-hydroxylase: a high-throughput mass spectrometric assay for discovery of small molecule inhibitors” (Scientific Reports, 2020).
Structures can show the parent of a compound that is named as a salt. Where two headings read alike, the source gives them in different places.

Target: T1, His6-AspH315–758 (human aspartate/asparagine-β-hydroxylase, AspH) (Homo sapiens, UniProt Q12797)
T1 construct: N-Terminally His6-tagged human AspH315–758 (His6-AspH315–758) was produced in E. coli BL21 (DE3) cells; made in house; host or cells: E. coli BL21 (DE3), pET-28a(+) vector
T1 sequence (Q12797 315-758): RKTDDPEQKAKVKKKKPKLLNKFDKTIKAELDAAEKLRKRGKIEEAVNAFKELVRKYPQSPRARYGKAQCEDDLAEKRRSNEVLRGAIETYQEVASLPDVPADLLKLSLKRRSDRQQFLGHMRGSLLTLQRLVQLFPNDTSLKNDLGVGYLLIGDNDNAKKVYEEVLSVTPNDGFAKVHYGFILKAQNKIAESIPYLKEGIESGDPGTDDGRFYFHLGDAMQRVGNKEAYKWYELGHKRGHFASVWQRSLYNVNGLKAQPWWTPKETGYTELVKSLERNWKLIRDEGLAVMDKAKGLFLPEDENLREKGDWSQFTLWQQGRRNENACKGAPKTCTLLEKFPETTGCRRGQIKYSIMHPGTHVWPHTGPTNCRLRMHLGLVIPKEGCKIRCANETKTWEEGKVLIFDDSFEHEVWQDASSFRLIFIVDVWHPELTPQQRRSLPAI
Test: SPE-MS AspH inhibition assay (LOPAC screen at fixed 20 μM and IC50 dose-response), hydroxylation of cyclic peptide hFX-CP101–119
Format: biochemical
Settings: for Plate 2 (% conversion) / Plate 3 (% conversion): conversion of substrate peptide

[1] = LOPAC compound at fixed 20 uM, plate 1, normalised to DMSO and 2,4-PDCA controls
[2] = LOPAC compound at fixed 20 uM, substrate conversion, plate 1
[3] = LOPAC compound at 20uM, plate 2
[4] = LOPAC Plate 4, compound at 20 uM, substrate conversion

Compound	Plate 1 (% inhibition) [1]	Plate 1 (% conversion) [2]	other results
CN(C)CCCC1(c2ccc(F)cc2)OCc2cc(C#N)ccc21 (stereo not shown) [Citalopram hydrobromide]	-13.21%	40.31%	
Cl.Clc1ccc(Cn2c(CN3CCCC3)nc3ccccc32)cc1 [Clemizole hydrochloride]	-13.99%	40.57%	
O=P(O)(O)C(Cl)(Cl)P(=O)(O)O [Clodronic acid, reference compound]			inhibition at 20 µM (AspH activity, fixed compound concentration 20 μM, initial LOPAC screen, 0.5%v/v DMSO, read-out: Inhibition at 20 µM [%]): 100%; Plate 2 (% conversion) [3]: 2.30%; inhibition at 20 µM (LOPAC compound at 20uM, plate 2, normalised to DMSO and 2,4-PDCA controls, read-out: Plate 2 (% inhibition)): 101%
CCOC(=O)C(C)(C)Oc1ccc(Cl)cc1 [Clofibrate]	-11.71%	39.80%	
CN(C)CCCN1c2ccccc2CCc2ccc(Cl)cc21 [Clomipramine hydrochloride]	-22.34%	43.38%	
Clc1cccc(Cl)c1N=C1NCCN1 [Clonidine hydrochloride]	-13.86%	40.53%	
C#CCN(C)CCCOc1ccc(Cl)cc1Cl [Clorgyline hydrochloride]			Plate 3 (% conversion) (LOPAC compound at 20uM): 42.76%
Clc1ccccc1C(c1ccccc1)(c1ccccc1)n1ccnc1 [Clotrimazole]	-28.43%	45.42%	
CN1CCN(C2=Nc3cc(Cl)ccc3Nc3ccccc32)CC1 [Clozapine]	-11.65%		Plate 1 (% conversion): 39.79%
COc1cc2c(c(OC)c1OC)-c1ccc(OC)c(=O)cc1[C@@H](NC(C)=O)CC2 [Colchicine]			Plate 1 (% conversion): 37.55%; Plate 1 (% inhibition): -5.00%
C[C@]12CCC(=O)C=C1CC[C@@H]1[C@@H]2CC[C@@]2(C)[C@H]1CC[C@]2(O)C(=O)CO [Cortexolone]			% conversion [4]: 39.11%
C[C@]12C[C@H](O)[C@H]3[C@@H](CCC4=CC(=O)CC[C@@]43C)[C@@H]1CC[C@@H]2C(=O)CO [Corticosterone]	-6.36%	38.01%	
CC(=O)OCC(=O)[C@@]1(O)CC[C@H]2[C@@H]3CCC4=CC(=O)CC[C@]4(C)[C@H]3C(=O)C[C@@]21C [Cortisone 21-acetate]	4.10%	34.50%	
C[C@]12CCC(=O)C=C1CC[C@@H]1[C@@H]2C(=O)C[C@@]2(C)[C@H]1CC[C@]2(O)C(=O)CO [Cortisone]	-8.46%	38.71%	
C[C@@H](Oc1cc(-c2cnn(C3CCNCC3)c2)cnc1N)c1c(Cl)ccc(F)c1Cl [Crizotinib]			Plate 5 (% inhibition) (plate 5 (Pfitzer), test compounds at fixed 20 μM): -31.92%; Plate 5 (% conversion) (plate 5 (Pfitzer), test compounds at fixed 20 μM, mean conversion DMSO 32.88): 47.18%
CN(C)CCC=C1c2ccccc2C=Cc2ccccc21 [Cyclobenzaprine hydrochloride]	-15.86%	41.20%	
O=P1(N(CCCl)CCCl)NCCCO1 (stereo not shown) [Cyclophosphamide monohydrate]			Plate 1 (% conversion): 38.48%; Plate 1 (% inhibition): -7.77%
CN1CCC(=C2c3ccccc3C=Cc3ccccc32)CC1 [Cyproheptadine hydrochloride]	-17.18%	41.64%	
CC(=O)O[C@]1(C(C)=O)CC[C@H]2[C@@H]3C=C(Cl)C4=CC(=O)[C@@H]5C[C@@H]5[C@]4(C)[C@H]3CC[C@@]21C [Cyproterone acetate]	-9.70%	39.13%	
NCCSSCCN [Cystamine dihydrochloride]	-7.76%	38.48%	
Cl.NCCS [Cysteamine hydrochloride]			Plate 3 (% conversion) (LOPAC compound at 20uM): 40.01%
S=C([S-])OC1CC2CC1C1CCCC21.[K+] [D-609 potassium]			% conversion: 29.00%
N[C@@H]1CON=C1O [D-Cycloserine]	-7.97%	38.55%	
N[C@H](CO)C(=O)O [D-Serine]			% conversion [4]: 29.64%
OC[C@H]1OC(n2cnc3ccccc32)[C@H](O)[C@@H]1O (stereo partly drawn) [D-ribofuranosylbenzimidazole]			Plate 2 (% conversion) [3]: 37.89%; Plate 2 (% inhibition) (LOPAC compound at 20uM, plate 2, normalised to DMSO and 2,4-PDCA controls): -5.77%
